Experimental findings from patent publication US9056843B2, “Trifluoromethyl-oxadiazole derivatives and their use in the treatment of disease” (NOVARTIS AG, priority 2011, dated 2015) are described below.

pIC50: −log10 of the molar value.

Holding throughout (type): biochemical
Test [1] concerns the target Human recombinant full length HDAC1 (Homo sapiens (Human), UniProt Q13547). Kind of test: Test 3: HDAC1 assay. To be noted: substrate 5 μM acetyl-Gly-Ala-Lys(acetyl)-AMC. The method, boiled down:
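Baculovirus-expressed full-length human HDAC1 with 5 μM acetyl-Gly-Ala-Lys(acetyl)-AMC substrate, developed with trypsin 15 min at room temperature.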

Another test deals with Human recombinant HDAC4 (Homo sapiens (Human), UniProt P56524). The test can be described thus: Test 2: HDAC4 assay (fluorogenic substrate, 5 μM acetyl-Gly-Ala-Lys(ε-trifluoroacetyl)-AMC). To be noted: Test 2 (values without asterisk). The method, boiled down:
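After the reaction, bovine trypsin (300 nM solution) was added for 15 min at RT to develop the signal; fluorescence read at 360/450 nm. No-enzyme background subtracted; IC50 from 4-parameter logistic fit of dose-response curves.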

Test [2] has as its target Human recombinant full length HDAC6 (Homo sapiens (Human), UniProt Q9UBN7). Kind of test: Test 4: HDAC6 assay. To be noted: Test 4; substrate 5 μM acetyl-Gly-Ala-Lys(acetyl)-AMC. In outline: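 Baculovirus-expressed full-length recombinant human HDAC6 with 5 μM acetyl-Gly-Ala-Lys(acetyl)-AMC substrate, developed with trypsin 15 min at room temperature.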

Chain of Human recombinant full length HDAC6 (Q9UBN7 whole entry): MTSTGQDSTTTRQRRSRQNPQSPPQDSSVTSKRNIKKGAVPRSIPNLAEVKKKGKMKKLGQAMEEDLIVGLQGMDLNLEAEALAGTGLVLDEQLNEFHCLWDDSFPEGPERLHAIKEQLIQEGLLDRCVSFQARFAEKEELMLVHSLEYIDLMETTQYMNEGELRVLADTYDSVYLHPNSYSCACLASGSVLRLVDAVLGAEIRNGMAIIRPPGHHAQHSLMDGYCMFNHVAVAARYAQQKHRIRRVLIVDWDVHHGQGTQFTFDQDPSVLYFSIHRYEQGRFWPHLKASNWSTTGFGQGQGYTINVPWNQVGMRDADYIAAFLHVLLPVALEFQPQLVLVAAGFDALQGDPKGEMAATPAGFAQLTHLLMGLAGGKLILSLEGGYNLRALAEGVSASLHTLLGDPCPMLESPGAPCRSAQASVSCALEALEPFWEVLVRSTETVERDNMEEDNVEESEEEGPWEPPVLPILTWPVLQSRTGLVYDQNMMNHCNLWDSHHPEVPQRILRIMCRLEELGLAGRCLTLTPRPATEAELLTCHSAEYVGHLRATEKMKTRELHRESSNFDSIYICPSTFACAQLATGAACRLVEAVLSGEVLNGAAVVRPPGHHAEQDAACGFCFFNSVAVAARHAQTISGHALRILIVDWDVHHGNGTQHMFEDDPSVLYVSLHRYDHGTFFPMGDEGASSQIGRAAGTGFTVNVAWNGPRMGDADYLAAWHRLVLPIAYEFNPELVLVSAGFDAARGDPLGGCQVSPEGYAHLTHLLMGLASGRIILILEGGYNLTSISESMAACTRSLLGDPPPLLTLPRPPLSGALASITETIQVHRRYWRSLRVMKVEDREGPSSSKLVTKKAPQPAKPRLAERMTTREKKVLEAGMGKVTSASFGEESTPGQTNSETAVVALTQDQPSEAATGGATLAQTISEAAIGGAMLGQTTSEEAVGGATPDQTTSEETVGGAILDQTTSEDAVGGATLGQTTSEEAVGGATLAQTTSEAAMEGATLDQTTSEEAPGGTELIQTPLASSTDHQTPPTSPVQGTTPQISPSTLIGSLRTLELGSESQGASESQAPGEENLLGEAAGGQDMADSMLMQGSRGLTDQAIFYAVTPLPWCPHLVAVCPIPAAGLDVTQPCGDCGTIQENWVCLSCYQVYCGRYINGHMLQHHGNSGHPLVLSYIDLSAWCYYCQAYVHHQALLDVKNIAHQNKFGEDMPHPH
Chain of Human recombinant full length HDAC1 (Q13547 whole entry): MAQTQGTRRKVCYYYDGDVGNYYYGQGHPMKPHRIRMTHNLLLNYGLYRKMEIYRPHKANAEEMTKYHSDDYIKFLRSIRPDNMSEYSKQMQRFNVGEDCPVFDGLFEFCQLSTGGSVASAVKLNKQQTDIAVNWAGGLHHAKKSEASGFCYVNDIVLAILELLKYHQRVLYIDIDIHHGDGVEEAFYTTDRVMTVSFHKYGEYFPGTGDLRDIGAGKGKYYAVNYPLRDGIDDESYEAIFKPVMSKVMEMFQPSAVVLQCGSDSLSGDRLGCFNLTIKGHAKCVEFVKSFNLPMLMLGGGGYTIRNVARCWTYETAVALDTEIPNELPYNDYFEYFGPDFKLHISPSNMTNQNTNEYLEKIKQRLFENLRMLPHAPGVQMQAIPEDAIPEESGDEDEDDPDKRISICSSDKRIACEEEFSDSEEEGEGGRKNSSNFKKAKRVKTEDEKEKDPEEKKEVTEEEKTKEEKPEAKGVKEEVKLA
Chain of Human recombinant HDAC4 (P56524 2-1084): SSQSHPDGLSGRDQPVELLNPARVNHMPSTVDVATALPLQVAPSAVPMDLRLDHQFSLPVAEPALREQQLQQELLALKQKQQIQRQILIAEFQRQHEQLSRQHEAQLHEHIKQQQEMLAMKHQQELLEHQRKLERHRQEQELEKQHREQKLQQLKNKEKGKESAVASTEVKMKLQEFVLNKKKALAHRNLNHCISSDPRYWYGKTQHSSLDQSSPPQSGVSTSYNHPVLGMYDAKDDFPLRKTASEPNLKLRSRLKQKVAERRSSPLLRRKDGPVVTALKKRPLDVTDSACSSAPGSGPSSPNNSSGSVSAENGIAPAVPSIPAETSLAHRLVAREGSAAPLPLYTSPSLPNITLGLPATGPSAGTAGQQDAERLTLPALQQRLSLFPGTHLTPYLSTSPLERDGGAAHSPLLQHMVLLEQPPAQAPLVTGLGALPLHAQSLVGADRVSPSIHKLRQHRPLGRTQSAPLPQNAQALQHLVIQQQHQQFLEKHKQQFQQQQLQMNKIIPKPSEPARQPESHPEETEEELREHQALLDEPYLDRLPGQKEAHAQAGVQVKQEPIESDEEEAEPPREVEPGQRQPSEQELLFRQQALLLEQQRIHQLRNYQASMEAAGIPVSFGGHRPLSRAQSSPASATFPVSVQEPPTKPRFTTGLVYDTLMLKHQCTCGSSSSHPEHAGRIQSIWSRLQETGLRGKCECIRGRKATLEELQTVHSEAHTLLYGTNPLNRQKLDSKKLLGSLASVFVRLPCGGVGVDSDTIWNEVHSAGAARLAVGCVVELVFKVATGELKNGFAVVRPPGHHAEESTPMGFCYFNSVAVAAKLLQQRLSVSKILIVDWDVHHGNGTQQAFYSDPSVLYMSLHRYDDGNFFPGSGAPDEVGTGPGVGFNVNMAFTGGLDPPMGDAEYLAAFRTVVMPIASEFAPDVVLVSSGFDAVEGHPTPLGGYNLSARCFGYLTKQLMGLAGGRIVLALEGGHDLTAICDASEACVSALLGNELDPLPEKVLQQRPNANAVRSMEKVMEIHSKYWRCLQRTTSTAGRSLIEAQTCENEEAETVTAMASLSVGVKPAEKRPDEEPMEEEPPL

A word on the pIC50: it is −log10 of the IC50, conventionally taken in molar units. `C[C@@H](CN(C)C)NC(=O)c1ccc(-c2noc(C(F)(F)F)n2)cc1` [Example 82, (S)—N-(1-(dimethylamino)propan-2-yl)-4-(5-(trifluoromethyl)-1,2,4-oxadiazol-3-yl)benzamide]: the results for the negative logarithm of the IC50 (pIC50) (in test [1]; on Human recombinant HDAC4; in test [2]) were below 5.00, 6.92 and below 5.00, respectively.
For the compound `CCN(C[C@@H](C)NC(=O)c1ccc(-c2noc(C(F)(F)F)n2)cc1F)C(C)C` [Example 152, (R)—N-(1-(ethyl(isopropyl)amino)propan-2-yl)-2-fluoro-4-(5-(trifluoromethyl)-1,2,4-oxadiazol-3-yl)benzamide], the pIC50 in test [1] was below 5.00; at Human recombinant HDAC4, 8.08; in test [2], 5.62.
For the compound `CN1CCC(CNC(=O)c2ccc(-c3noc(C(F)(F)F)n3)cc2)CC1` [Example 49, N-((1-methylpiperidin-4-yl)methyl)-4-(5-(trifluoromethyl)-1,2,4-oxadiazol-3-yl)benzamide], the results for the negative logarithm of the IC50 (pIC50) (in test [1]; on Human recombinant HDAC4; in test [2]) were below 5.00, 6.00 and below 5.00, respectively.
As to `O=C(c1ccc(-c2noc(C(F)(F)F)n2)cc1)N1CCC(Cc2ccccc2)CC1` [Example 43, (4-benzylpiperidin-1-yl)(4-(5-(trifluoromethyl)-1,2,4-oxadiazol-3-yl)phenvyl)methanone], the figures for the pIC50 (in test [1]; at Human recombinant HDAC4; in test [2]) were below 5.00, 6.54 and below 5.00, respectively.
As for `CC(C)(C)OC(=O)N1CCC(NC(=O)c2ccc(-c3noc(C(F)(F)F)n3)cc2)CC1` [Example 59, 4-[4-(5-trifluoromethyl-[1,2,4]oxadiazol-3-yl)-benzoylamino]-piperidine-1-carboxylic acid tert-butyl ester], the pIC50 in test [1] is below 5.00; on Human recombinant HDAC4 it was 5.85; in test [2] it was below 5.00.
With `CCN(CC)C[C@H](C)NC(=O)c1ccc(-c2noc(C(F)(F)F)n2)cc1F` [Example 127, (S)—N-(1-(diethylamino)propan-2-yl)-2-fluoro-4-(5-(trifluoromethyl)-1,2,4-oxadiazol-3-yl)benzamide], the pIC50 is below 5.00 in test [1], 7.36 on Human recombinant HDAC4 and below 5.00 in test [2].
Take `CNC(=O)Cc1ccc(-c2noc(C(F)(F)F)n2)cc1` [Example 3, N-methyl-2-[4-(5-trifluoromethyl-[1,2,4]oxadiazol-3-yl)-phenyl]-acetamide]: the figures for the pIC50 (in test [1]; on Human recombinant HDAC4; in test [2]) were below 5.00, 5.72 and below 5.00, respectively.
`O=C(NC1CCCC1)c1ccc(-c2noc(C(F)(F)F)n2)cc1` [Example 29, N-cyclopentyl-4-(5-(trifluoromethyl)-1,2,4-oxadiazol-3-yl)benzamide]: the pIC50 in test [1] was below 5.00; on Human recombinant HDAC4 it was 5.92; in test [2], below 5.00.
For `O=S(=O)(Nc1ccc(Cl)cc1)c1ccc(-c2noc(C(F)(F)F)n2)cc1` [Example 110, N-(4-chlorophenyl)-4-(5-(trifluoromethyl)-1,2,4-oxadiazol-3-yl)benzenesulfonamide], the figures for the pIC50 (in test [1]; at Human recombinant HDAC4; in test [2]) were below 5.00, 6.70 and 5.70, respectively.
For `CCC(CC)NC(=O)c1ccc(-c2noc(C(F)(F)F)n2)cc1` [Example 30, N-(pentan-3-yl)-4-(5-(trifluoromethyl)-1,2,4-oxadiazol-3-yl)benzamide], in that order: below 5.00, 5.19 and below 5.00.
On to `Cc1cc(NC(=O)c2ccc(-c3noc(C(F)(F)F)n3)cc2F)cc(C)n1` [Example 90, N-(2,6-dimethylpyridin-4-yl)-2-fluoro-4-(5-(trifluoromethyl)-1,2,4-oxadiazol-3-yl)benzamide], for which the pIC50 in test [1] was below 5.00; at Human recombinant HDAC4, 6.36; in test [2] it was 5.60.
As for `CN1CCN(C(=O)Cc2ccc(-c3noc(C(F)(F)F)n3)cc2)CC1` [Example 10, 1-(4-methylpiperazin-1-yl)-2-(4-(5-(trifluoromethyl)-1,2,4-oxadiazol-3-yl)phenvyl)ethanone], the pIC50 in test [1] was below 5.00; on Human recombinant HDAC4, 5.89; in test [2] it was 5.25.
The like results for `CCN(CC)C[C@@H](C)NC(=O)c1ccc(-c2noc(C(F)(F)F)n2)cc1F` [Example 126, (R)—N-(1-(diethylamino)propan-2-yl)-2-fluoro-4-(5-(trifluoromethyl)-1,2,4-oxadiazol-3-yl)benzamide] were, in that order, below 5.00, 8.05 and 5.41.
`CC(C)(C)OC(=O)N1CCN(C(=O)c2ccc(-c3noc(C(F)(F)F)n3)cc2)CC1` [Example 55, Tert-butyl 4-(4-(5-(trifluoromethyl)-1,2,4-oxadiazol-3-yl)benzoyl)piperazine-1-carboxylate]: the pIC50 in test [1] is below 5.00; at Human recombinant HDAC4, 5.55; in test [2], below 5.00.
Take `O=C(c1ccc(-c2noc(C(F)(F)F)n2)cc1)N1CCN(c2ccccc2)CC1` [Example 42, (4-phenylpiperazin-1-yl)(4-(5-(trifluoromethyl)-1,2,4-oxadiazol-3-yl)phenyl)methanone]: the pIC50 in test [1] is below 5.00; at Human recombinant HDAC4 it was 5.38; in test [2], below 5.00.
As for `COCCNC(=O)Cc1ccc(-c2noc(C(F)(F)F)n2)cc1` [Example 7, N-(2-methoxyethyl)-2-(4-(5-(trifluoromethyl)-1,2,4-oxadiazol-3-yl)phenyl)acetamide], the pIC50 in test [1] is below 5.00; at Human recombinant HDAC4, 6.02; in test [2], 5.16.
The like results for `CC(C)CNC(=O)c1ccc(-c2noc(C(F)(F)F)n2)cc1` [Example 27, N-isobutyl-4-(5-(trifluoromethyl)-1,2,4-oxadiazol-3-yl)benzamide] were, in that order, below 5.00, 5.92 and below 5.00.
Consider `O=S(=O)(NCCCO)c1ccc(-c2noc(C(F)(F)F)n2)cc1` [Example 116, N-(3-hydroxypropyl)-4-(5-(trifluoromethyl)-1,2,4-oxadiazol-3-yl)benzenesulfonamide], for which the pIC50 was below 5.00 in test [1], 6.80 on Human recombinant HDAC4 and 5.51 in test [2].
With `O=C(NC1CCNC1)c1ccc(-c2noc(C(F)(F)F)n2)cc1` (stereo not drawn) [Example 80, N-(pyrrolidin-3-yl)-4-(5-(trifluoromethyl)-1,2,4-oxadiazol-3-yl)benzamide], the results for the pIC50 (in test [1]; at Human recombinant HDAC4; in test [2]) were below 5.00, 6.33 and below 5.00, respectively.
Consider `CN(C)S(=O)(=O)c1ccc(-c2noc(C(F)(F)F)n2)cc1` [Example 114, N,N-dimethyl-4-(5-(trifluoromethyl)-1,2,4-oxadiazol-3-yl)benzenesulfonamide], for which the pIC50 in test [1] was below 5.00; at Human recombinant HDAC4, 6.20; in test [2], 5.04.
Turning to `CN(C)CCCNS(=O)(=O)c1ccc(-c2noc(C(F)(F)F)n2)cc1` [Example 113, N-(3-(dimethylamino)propyl)-4-(5-(trifluoromethyl)-1,2,4-oxadiazol-3-yl)benzenesulfonamide], the pIC50 in test [1] is below 5.00; at Human recombinant HDAC4 it was 6.52; in test [2], 5.21.
For `CON(C)C(=O)Cc1ccc(-c2noc(C(F)(F)F)n2)cc1` [Example 11, N-methoxy-N-methyl-2-(4-(5-(trifluoromethyl)-1,2,4-oxadiazol-3-yl)phenvyl)acetamide], in that order: below 5.00, 5.96 and 5.05.
The like results for `Cc1ccc(NS(=O)(=O)c2ccc(-c3noc(C(F)(F)F)n3)cc2)cc1` [Example 108, N-p-tolyl-4-(5-(trifluoromethyl)-1,2,4-oxadiazol-3-yl)benzenesulfonamide] were, in that order, 5.30, 7.03 and 6.13.
For `C[C@@H](CO)NC(=O)c1ccc(-c2noc(C(F)(F)F)n2)cc1` [Example 50, (S)—N-(1-hydroxyypropan-2-yl)-4-(5-(trifluoromethyl)-1,2,4-oxadiazol-3-yl)benzamide], the results for the pIC50 (in test [1]; on Human recombinant HDAC4; in test [2]) were below 5.00, 6.21 and 5.14, respectively.
The like results for `CN(C)CC(C)(C)NC(=O)c1ccc(-c2noc(C(F)(F)F)n2)cc1` [Example 119, N-(1-(dimethylamino)-2-methylpropan-2-yl)-4-(5-(trifluoromethyl)-1,2,4-oxadiazol-3-yl)benzamide] were, in that order, below 5.00, 7.44 and below 5.00.
The like results for `CC(C)[C@H](CN(C)C)NC(=O)c1ccc(-c2noc(C(F)(F)F)n2)cc1` [Example 84, (R)—N-(1-(dimethylamino)-3-methylbutan-2-yl)-4-(5-(trifluoromethyl)-1,2,4-oxadiazol-3-yl)benzamide] were, in that order, below 5.00, 6.31 and below 5.00.
For `O=C(NCC1CC1)c1ccc(-c2noc(C(F)(F)F)n2)cc1` [Example 26, N-(cyclopropylmethyl)-4-(5-(trifluoromethyl)-1,2,4-oxadiazol-3-yl)benzamide], the negative-log IC50 (pIC50) in test [1] is below 5.00; at Human recombinant HDAC4, 6.21; in test [2], 5.49.
The like results for `N#Cc1cc(NC(=O)c2ccc(-c3noc(C(F)(F)F)n3)cc2)ccn1` [Example 73, N-(2-cyanopyridin-4-yl)-4-(5-(trifluoromethyl)-1,2,4-oxadiazol-3-yl)benzamide] were, in that order, below 5.00, 7.28 and 5.21.
